Test results reported in ChEMBL document CHEMBL3108682, “Piperazine oxadiazole inhibitors of acetyl-CoA carboxylase” (J Med Chem, 2013).

Key:
Assay type in all cases: ADME, organism-based
[1] = Cmax in Sprague-Dawley rat at 5 mg/kg, po; design: dose 5 mg/kg, route oral; settings: in vivo
[2] = AUC (0 to 24 hrs) in Sprague-Dawley rat at 5 mg/kg, po; design: time < 24 hr, dose 5 mg/kg, route oral; settings: plasma
[3] = Volume of distribution at steady state in Sprague-Dawley rat at 2 mg/kg, iv; design: dose 2 mg/kg, route intravenous; settings: in vivo, read-out: Vdss
[4] = Oral bioavailability in Sprague-Dawley rat at 5 mg/kg; settings: in vivo
Plasma [5] = assay: Fraction unbound in C57BL6 mouse plasma at 50 mg/kg, po; design: dose 50 mg/kg, route oral; settings: in vivo
[6] = Cmax in C57BL6 mouse at 5 mg/kg, po; design: dose 5 mg/kg, route oral; settings: in vivo
Plasma [7] = assay: Fraction unbound in C57BL6 mouse plasma at 25 mg/kg, po after 12 hrs; design: dose 25 mg/kg, route oral; settings: in vivo
Plasma [8] = assay: Fraction unbound in C57BL6 mouse plasma at 25 mg/kg, po; design: dose 25 mg/kg, route oral; settings: in vivo
Plasma [9] = assay: Fraction unbound in C57BL6 mouse plasma at 35 mg/kg, po; design: dose 35 mg/kg, route oral; settings: in vivo
Plasma [10] = assay: Fraction unbound in C57BL6 mouse plasma at 25 mg/kg, po after 8 hrs; design: dose 25 mg/kg, route oral; settings: in vivo
[11] = Volume of distribution at steady state in C57BL6 mouse at 2 mg/kg, iv; design: dose 2 mg/kg, route intravenous; settings: in vivo, read-out: Vdss
[12] = Oral bioavailability in C57BL6 mouse at 5 mg/kg; settings: in vivo
Plasma [13] = assay: Fraction unbound in C57BL6 mouse plasma at 15 mg/kg, po; design: dose 15 mg/kg, route oral; settings: in vivo
Plasma [14] = assay: Fraction unbound in C57BL6 mouse plasma at 25 mg/kg, po after 4 hrs; design: dose 25 mg/kg, route oral; settings: in vivo
Plasma [15] = assay: Fraction unbound in C57BL6 mouse plasma at 100 mg/kg, po; design: dose 100 mg/kg, route oral; settings: in vivo
Plasma [16] = assay: Fraction unbound in C57BL6 mouse plasma at 25 mg/kg, po after 1 hr; design: dose 25 mg/kg, route oral; settings: in vivo

SMILES	Cmax [1] [nM]	AUC(0-t) at 24 h [2] [ng·h/mL]	Vd [3] [L/kg]	bioavailability [4] [%]	Cp(f) (Plasma [5]) [nM]	Cmax [6] [nM]	Cp(f) (Plasma [7]) [nM]	Cp(f) (Plasma [8]) [nM]	Cp(f) (Plasma [9]) [nM]	Cp(f) (Plasma [10]) [nM]	Vd [11] [L/kg]	bioavailability [12] [%]	Cp(f) (Plasma [13]) [nM]	Cp(f) (Plasma [14]) [nM]	Cp(f) (Plasma [15]) [nM]	Cp(f) (Plasma [16]) [nM]
CCOc1ccc(N2CCN(c3noc(CC)n3)[C@@H](C)C2)c(C)c1	380	291	12.8	17												
CCOc1ccc(N2CCN(c3noc(C4(NC(C)=O)CCC4)n3)[C@@H](C)C2)c(C)c1	1200		1.8	34	988	5800	498	708	618	882	0.98	46	95	1142	1482	1165
